Assay results reported in ChEMBL document CHEMBL1208749 (2010).

Each molecule was assayed on 3T3-L1 (assay: Glucose uptake enhancing activity in insulin-stimulated mouse 3T3L1 cells at 10 uM after 4 days by FLIPR based 2-DG uptake assay relative to control).
Assay type: functional

Row | SMILES | fold change (FC)
1 | O=c1c(-c2ccc(O)cc2)coc2c([C@@H]3O[C@H](CO)[C@@H](O)[C@H](O)[C@H]3O)c(O)ccc12 [PUERARIN] | 1.5
2 | O=c1cc(-c2ccc(O)cc2)oc2c([C@@H]3O[C@H](CO)[C@@H](O)[C@H](O)[C@H]3O)c(O)cc(O)c12 | 1.1
3 | O=c1c(-c2ccc(O)cc2)coc2cc(O)ccc12 [DAIDZEIN] | 1.5
4 | O=c1c(-c2ccc(O[C@@H]3O[C@H](CO)[C@@H](O)[C@H](O)[C@H]3O)cc2)coc2cc(O)ccc12 | 1.15
5 | O=c1c(-c2ccc(O)cc2)coc2cc(O[C@@H]3O[C@H](CO)[C@@H](O)[C@H](O)[C@H]3O)ccc12 [DAIDZIN] | 1.15
6 | O=c1c(-c2ccc(O)cc2)coc2c(CC(O)CO)c(O)ccc12 (stereo not drawn) | 1.5
7 | O=C1c2c(O)cc(O)c([C@@H]3O[C@H](CO)[C@@H](O)[C@H](O)[C@H]3O)c2OCC1c1ccc(O)cc1 (stereo partly drawn) | 1.1
8 | O=c1c(-c2ccc(O)cc2)coc2cc(O)c([C@H]3O[C@@H](CO)[C@H](O)[C@@H](O)[C@@H]3O)c(O)c12 | 1.5
